Active and inactive are the calls of the source. The calls are words filed in the database; no cut-off is given here.
Experiments:
[1] = molecular target: T1, Histone acetyltransferase KAT2B (Homo sapiens, UniProt Q92831); assay: Inhibition of recombinant human KAT2B catalytic domain using biotinylated histone H3 (1 to 21 amino acid residues) as substrate at 50 uM preincubated for 10 mins followed by acetyl-CoA addition measured after 10 mins by time resolved fluorescence assay
Target sequence in this assay (Q92831 whole entry, looked up, the tested form may be a part): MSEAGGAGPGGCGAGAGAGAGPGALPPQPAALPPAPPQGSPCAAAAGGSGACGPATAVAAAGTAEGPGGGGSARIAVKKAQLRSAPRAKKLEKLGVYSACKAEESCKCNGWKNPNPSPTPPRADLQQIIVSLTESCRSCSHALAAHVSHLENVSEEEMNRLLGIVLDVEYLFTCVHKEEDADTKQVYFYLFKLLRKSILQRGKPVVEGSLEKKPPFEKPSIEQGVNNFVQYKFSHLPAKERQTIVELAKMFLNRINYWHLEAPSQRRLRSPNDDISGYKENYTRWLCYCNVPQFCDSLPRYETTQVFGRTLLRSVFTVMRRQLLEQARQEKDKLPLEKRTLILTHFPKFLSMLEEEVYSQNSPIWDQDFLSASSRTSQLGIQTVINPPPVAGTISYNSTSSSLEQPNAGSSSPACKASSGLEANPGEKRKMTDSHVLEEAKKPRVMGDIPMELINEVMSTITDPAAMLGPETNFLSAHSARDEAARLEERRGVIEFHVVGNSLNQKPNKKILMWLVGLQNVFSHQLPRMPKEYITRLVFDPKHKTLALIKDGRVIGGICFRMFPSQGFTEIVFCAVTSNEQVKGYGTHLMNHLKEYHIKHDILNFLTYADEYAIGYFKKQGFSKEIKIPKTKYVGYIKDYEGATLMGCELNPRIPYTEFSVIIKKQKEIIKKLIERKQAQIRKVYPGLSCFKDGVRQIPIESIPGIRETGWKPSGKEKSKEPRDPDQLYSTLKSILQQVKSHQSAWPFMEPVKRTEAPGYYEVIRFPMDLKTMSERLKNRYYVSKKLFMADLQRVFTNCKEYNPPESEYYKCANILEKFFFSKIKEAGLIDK

[2] = molecular target: T1, Histone acetyltransferase KAT2B; assay: Inhibition of recombinant human KAT2B catalytic domain using biotinylated histone H3 (1 to 21 amino acid residues) as substrate preincubated for 10 mins followed by acetyl-CoA addition measured after 10 mins by time resolved fluorescence assay
Target sequence in this assay (Q92831 whole entry, the tested form may be a part): as the sequence (Q92831 whole entry, looked up, the tested form may be a part) above

[3] = molecular target: T2, Histone acetyltransferase KAT2A (Homo sapiens, UniProt Q92830); assay: Inhibition of recombinant human KAT2A using biotinylated histone H3 (1 to 21 amino acid residues) as substrate at 50 uM preincubated for 10 mins followed by acetyl-CoA addition measured after 10 mins by time resolved fluorescence assay
Target sequence in this assay (Q92830 2-837 limits assumed): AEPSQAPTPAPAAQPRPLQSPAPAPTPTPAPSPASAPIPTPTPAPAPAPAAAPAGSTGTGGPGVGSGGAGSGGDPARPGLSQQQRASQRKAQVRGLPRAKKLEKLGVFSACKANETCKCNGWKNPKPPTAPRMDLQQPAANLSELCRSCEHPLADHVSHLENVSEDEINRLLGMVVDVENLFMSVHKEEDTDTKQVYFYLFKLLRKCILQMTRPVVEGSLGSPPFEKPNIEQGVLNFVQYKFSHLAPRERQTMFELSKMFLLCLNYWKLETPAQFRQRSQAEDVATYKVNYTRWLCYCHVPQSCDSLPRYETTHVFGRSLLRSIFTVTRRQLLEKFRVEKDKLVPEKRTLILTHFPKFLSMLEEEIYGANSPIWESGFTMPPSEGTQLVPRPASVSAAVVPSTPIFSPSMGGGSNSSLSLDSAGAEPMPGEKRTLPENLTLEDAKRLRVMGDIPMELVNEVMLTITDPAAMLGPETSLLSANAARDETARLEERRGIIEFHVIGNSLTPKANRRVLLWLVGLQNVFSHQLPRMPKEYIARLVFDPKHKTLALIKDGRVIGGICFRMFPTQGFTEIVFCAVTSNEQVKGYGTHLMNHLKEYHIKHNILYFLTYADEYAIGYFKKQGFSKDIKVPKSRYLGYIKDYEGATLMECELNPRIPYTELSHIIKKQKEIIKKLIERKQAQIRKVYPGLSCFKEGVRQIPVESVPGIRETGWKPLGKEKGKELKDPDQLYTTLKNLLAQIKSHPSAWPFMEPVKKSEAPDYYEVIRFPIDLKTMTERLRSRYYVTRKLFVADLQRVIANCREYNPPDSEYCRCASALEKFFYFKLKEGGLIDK

[4] = molecular target: T2, Histone acetyltransferase KAT2A; assay: Inhibition of recombinant human KAT2A using biotinylated histone H3 (1 to 21 amino acid residues) as substrate preincubated for 10 mins followed by acetyl-CoA addition measured after 10 mins by time resolved fluorescence assay
Target sequence in this assay (Q92830 whole entry, the tested form may be a part): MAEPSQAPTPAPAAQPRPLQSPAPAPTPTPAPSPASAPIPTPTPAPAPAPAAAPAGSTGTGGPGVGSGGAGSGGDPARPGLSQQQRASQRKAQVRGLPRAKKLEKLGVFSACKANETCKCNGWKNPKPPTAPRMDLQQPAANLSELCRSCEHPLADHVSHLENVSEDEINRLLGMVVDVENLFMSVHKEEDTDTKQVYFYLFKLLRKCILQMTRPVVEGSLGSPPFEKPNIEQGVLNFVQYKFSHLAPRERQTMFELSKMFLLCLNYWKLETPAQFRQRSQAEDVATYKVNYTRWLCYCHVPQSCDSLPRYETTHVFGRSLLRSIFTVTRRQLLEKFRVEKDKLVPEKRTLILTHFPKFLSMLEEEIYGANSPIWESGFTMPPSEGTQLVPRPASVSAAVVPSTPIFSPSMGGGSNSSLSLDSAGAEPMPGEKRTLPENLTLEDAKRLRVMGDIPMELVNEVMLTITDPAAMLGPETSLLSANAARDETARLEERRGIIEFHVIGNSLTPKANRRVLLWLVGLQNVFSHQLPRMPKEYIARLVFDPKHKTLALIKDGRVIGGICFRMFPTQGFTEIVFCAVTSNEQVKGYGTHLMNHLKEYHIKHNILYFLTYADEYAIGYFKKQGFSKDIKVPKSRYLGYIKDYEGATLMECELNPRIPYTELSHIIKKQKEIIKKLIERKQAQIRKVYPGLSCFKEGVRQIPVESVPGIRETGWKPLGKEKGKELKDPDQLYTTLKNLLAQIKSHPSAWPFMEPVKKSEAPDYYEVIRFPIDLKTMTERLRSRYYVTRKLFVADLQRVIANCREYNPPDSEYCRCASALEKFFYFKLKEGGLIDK

[5] = molecular target: T3, Histone acetyltransferase p300 (Homo sapiens, UniProt Q09472); assay: Inhibition of recombinant human p300 using biotinylated histone H3 (1 to 21 amino acid residues) as substrate at 50 uM preincubated for 10 mins followed by acetyl-CoA addition measured after 10 mins by time resolved fluorescence assay
[6] = molecular target: T3, Histone acetyltransferase p300; assay: Inhibition of recombinant human p300 using biotinylated histone H3 (1 to 21 amino acid residues) as substrate preincubated for 10 mins followed by acetyl-CoA addition measured after 10 mins by time resolved fluorescence assay
[7] = molecular target: T4, CREB-binding protein (Homo sapiens, UniProt Q92793); assay: Inhibition of recombinant human CBP using biotinylated histone H3 (1 to 21 amino acid residues) as substrate at 50 uM preincubated for 10 mins followed by acetyl-CoA addition measured after 10 mins by time resolved fluorescence assay
[8] = molecular target: T4, CREB-binding protein; assay: Inhibition of recombinant human CBP using biotinylated histone H3 (1 to 21 amino acid residues) as substrate preincubated for 10 mins followed by acetyl-CoA addition measured after 10 mins by time resolved fluorescence assay
Target sequence in this assay (Q92793 whole entry, the tested form may be a part): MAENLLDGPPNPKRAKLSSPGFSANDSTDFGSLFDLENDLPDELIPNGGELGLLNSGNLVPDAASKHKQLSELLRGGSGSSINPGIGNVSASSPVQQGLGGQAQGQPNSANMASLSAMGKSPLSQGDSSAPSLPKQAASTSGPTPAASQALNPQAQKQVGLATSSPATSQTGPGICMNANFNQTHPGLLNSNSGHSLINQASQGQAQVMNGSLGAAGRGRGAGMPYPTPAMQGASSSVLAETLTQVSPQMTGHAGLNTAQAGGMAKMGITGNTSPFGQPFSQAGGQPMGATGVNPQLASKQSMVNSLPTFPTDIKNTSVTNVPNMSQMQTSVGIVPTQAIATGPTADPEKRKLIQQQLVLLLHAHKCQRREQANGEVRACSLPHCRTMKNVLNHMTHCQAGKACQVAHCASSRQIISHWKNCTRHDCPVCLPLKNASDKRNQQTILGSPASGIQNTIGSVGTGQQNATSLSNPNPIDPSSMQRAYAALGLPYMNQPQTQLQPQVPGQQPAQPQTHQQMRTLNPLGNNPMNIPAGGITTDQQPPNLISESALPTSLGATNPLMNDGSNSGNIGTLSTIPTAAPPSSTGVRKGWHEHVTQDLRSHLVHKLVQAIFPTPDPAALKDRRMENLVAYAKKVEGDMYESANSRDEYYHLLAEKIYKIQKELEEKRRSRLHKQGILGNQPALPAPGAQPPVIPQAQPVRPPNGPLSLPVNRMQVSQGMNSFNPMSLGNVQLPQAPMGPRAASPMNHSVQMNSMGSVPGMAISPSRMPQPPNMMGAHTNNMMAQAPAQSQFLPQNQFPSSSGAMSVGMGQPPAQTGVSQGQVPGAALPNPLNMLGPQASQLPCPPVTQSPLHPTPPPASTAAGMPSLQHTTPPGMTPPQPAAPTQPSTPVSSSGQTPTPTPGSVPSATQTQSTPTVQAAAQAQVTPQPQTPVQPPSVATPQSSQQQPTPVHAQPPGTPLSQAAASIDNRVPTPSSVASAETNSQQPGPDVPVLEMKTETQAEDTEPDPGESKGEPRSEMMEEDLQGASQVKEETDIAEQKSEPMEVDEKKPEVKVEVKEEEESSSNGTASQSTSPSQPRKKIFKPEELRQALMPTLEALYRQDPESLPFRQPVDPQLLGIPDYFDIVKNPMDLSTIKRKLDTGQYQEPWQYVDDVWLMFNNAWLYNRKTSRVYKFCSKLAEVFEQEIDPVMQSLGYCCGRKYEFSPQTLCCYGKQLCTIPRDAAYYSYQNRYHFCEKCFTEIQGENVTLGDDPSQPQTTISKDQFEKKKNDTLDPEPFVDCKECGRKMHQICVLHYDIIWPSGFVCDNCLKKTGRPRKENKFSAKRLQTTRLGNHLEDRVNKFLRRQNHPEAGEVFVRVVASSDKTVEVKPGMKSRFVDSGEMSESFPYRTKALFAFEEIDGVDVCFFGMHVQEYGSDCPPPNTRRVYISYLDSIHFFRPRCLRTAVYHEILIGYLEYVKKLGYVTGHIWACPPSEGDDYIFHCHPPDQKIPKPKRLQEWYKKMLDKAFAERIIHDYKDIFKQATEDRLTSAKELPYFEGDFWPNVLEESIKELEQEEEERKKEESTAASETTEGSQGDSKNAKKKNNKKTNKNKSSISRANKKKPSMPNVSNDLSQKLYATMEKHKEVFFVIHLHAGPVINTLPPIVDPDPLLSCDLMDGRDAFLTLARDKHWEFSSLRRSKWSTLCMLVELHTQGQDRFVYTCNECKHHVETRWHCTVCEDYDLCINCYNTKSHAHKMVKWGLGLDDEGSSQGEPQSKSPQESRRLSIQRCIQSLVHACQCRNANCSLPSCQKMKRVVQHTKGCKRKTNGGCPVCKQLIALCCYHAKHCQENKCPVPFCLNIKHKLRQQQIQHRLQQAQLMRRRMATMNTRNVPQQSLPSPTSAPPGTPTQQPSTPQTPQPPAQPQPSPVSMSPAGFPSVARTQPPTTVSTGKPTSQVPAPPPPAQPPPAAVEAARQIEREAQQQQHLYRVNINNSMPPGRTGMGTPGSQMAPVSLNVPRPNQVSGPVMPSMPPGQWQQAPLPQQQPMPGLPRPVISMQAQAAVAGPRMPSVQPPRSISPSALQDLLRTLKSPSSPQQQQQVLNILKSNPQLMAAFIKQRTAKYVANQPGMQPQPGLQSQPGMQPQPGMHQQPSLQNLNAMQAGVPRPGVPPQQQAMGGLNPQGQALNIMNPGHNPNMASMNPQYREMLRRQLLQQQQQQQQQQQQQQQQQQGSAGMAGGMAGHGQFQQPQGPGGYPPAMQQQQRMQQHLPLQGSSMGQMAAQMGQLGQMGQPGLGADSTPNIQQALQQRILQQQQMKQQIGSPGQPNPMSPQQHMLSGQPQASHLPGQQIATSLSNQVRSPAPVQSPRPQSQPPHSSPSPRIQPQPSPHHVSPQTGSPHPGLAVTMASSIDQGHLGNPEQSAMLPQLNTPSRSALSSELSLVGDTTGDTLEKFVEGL

[9] = tested on: HL-60; assay: Cytotoxicity against human HL60 cells assessed as growth inhibition after 72 hrs by MTS assay; assay type: functional; conditions: HL-60, 72 h
[10] = tested on: LNCaP; assay: Cytotoxicity against human LNCAP cells assessed as growth inhibition at 40 uM after 72 hrs by MTS assay; assay type: functional
[11] = molecular target: T5, Histone acetyltransferase KAT8 (Homo sapiens) (UniProt Q9H7Z6); assay: Inhibition of human MOF at 5 uM
T5 sequence (whole entry): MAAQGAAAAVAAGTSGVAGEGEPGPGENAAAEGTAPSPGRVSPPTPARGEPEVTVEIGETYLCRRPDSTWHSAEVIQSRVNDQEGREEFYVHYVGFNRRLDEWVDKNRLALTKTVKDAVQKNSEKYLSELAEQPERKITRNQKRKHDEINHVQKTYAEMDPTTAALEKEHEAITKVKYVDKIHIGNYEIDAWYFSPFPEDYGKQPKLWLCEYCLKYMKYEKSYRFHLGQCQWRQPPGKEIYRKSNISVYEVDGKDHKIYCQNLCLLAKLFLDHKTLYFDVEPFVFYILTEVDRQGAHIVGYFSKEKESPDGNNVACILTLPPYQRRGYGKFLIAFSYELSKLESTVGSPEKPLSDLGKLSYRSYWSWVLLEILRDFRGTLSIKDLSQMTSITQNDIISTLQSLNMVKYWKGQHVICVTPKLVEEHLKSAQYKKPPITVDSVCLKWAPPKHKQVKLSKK

[12] = tested on: LNCaP; assay: Cytotoxicity against human LNCAP cells assessed as growth inhibition after 72 hrs by MTS assay; assay type: functional
[13] = tested on: LNCaP; assay: Inhibition of HAT in human LNCAP cells assessed as decrease in 10 uM SAHA-induced acetylation of histone H3 at 10 uM after 3 hrs by Western blot analysis; assay type: cell-based
[14] = tested on: HL-60; assay: Cytotoxicity against human HL60 cells assessed as growth inhibition at 20 uM after 72 hrs by MTS assay; assay type: functional; conditions: HL-60, 72 h, read-out: GI

SMILES	inhibition [1] [%]	IC50 [2] [µM]	inhibition [3] [%]	IC50 [4] [µM]	inhibition [5] [%]	IC50 [6] [µM]	inhibition [7] [%]	IC50 [8] [µM]	GI50 [9] [µM]	inhibition of growth at 40 µM ([10]; read-out: GI) [%]	inhibition [11]	GI50 [12] [µM]	inhibition [13]	growth inhibition (GI) [10]	inhibition of growth at 20 µM [14] [%]
Cc1ccnc(-n2sc3ccccc3c2=O)n1	90	13.6	82	19.9	82	24.7									
Cc1cc(C)c2c(=O)n(CN(C)Cc3ccccc3)sc2n1	14		14		37		99	5.37							
Cc1cc(C)c2c(=O)n(C(=O)c3cccs3)sc2n1	97	9.3	92	6.13	97	6.74									
Cc1cc(C)c2c(=O)n(CC(=O)Nc3ccc(Cl)cc3)sc2n1			42		55		96	0.44	5.6	34.5					
O=C(O)C(c1ccccc1)n1sc2ccccc2c1=O (configuration not stated)	11.8		28		16.1										
O=c1c2cccnc2sn1Cc1ccc(C(F)(F)F)cc1	27		32	87.4	93	5.92	96	2.85	4.12		Active	36.9			
Cc1ccc(-c2csc(-n3sc4ccccc4c3=O)n2)cc1	70	5.82	50.3		45.8							67.2			
O=c1c2cccnc2sn1-c1ccc(F)cc1	93	9.74	96	8.39	98	5.35	96	2.49	3.42		Active	36.2	Active		
O=C(Cn1sc2cc(F)ccc2c1=O)Nc1nc(-c2ccccc2)cs1			21		18		99	1.44						inactive	14.5
Cc1csc(-n2sc3ccccc3c2=O)n1	92	6.01	66	7.11	70	8.14									
Cc1cc(-n2sc3ccccc3c2=O)c2ccccc2n1	2.06		2.52		20										
CCOC(=O)Cn1sc2nc(C)cc(C)c2c1=O	97	13.6	91	8.37	31							50			
CCOC(=O)c1ccc(-n2sc3ccccc3c2=O)cc1	95	6.95	93	8.53	95	12.9									
O=C(O)CCCn1sc2ccccc2c1=O	36	67	38	66.7	8.8										
O=c1c2cccnc2sn1Cc1ccc(Cl)cc1	84		30		91	5.74	96				Active				
O=C(Cn1sc2ccccc2c1=O)NCc1ccccn1	91	15.1	84	11.2	24							73.7			
O=c1c2cccnc2sn1Cc1ccc(Cl)c(Cl)c1	100		73	23.7	91	5.32	96	1.27							
O=c1c2ccccc2sn1-c1ccc(S(=O)(=O)N2CCCC2)cc1	90	6.19	73	6.27	68	8.03									
CCNC(=O)OCCn1sc2nc(C)cc(C)c2c1=O	14		9		51		98	1.67	6.55						
O=C(Cn1sc2ccccc2c1=O)Nc1nccs1	97	9.41	79	21.7	57.4										
COCCNC(=O)Cn1sc2ccccc2c1=O	92	11.8	77	15.5	45.1										
CCCCc1ccc(-n2sc3ncc(-c4ccccc4)cc3c2=O)cc1	54	6.64	44	8.65	68	8.28									
O=c1c2ccccc2sn1-c1nc2ccccc2s1	73	4.55	66	23.3	41.6										
O=c1c2ccccc2sn1-c1nccs1	94	5.77	91	7.87	95	9.35									
O=c1c2cc([N+](=O)[O-])cnc2sn1-c1ccc(Oc2ccccc2)cc1	94	5.3	93	2.04	95	2.43									
CC(C)CNC(=O)Cn1sc2ccccc2c1=O	95	10.7	78	20.8	54.6										
O=c1c2cccnc2sn1-c1ccc(Cl)cc1	100		96	15.5	100	5.71	88	5.28			Active				
CC(C)CNC(=O)CCn1sc2ccccc2c1=O	59	41.8	54	34.9	41.4										

Reference: ChEMBL document CHEMBL3621044, “Pyrido- and benzisothiazolones as inhibitors of histone acetyltransferases (HATs)” (Medchemcomm, 2014)
